The record followed here is ChEMBL document CHEMBL5113507, “Discovery of potent ebola entry inhibitors with (3S,4aS,8aS)-2-(3-amino-2-hydroxypropyl) decahydroisoquinoline-3-carboxamide scaffold” (Eur J Med Chem, 2022).

Data set [1] is described as follows: Cytotoxicity against human Huh-7 cells assessed as reduction in cell viability by cellular ATP method. The data set is classed as toxicity, cell-based.

Broadly, the IC50 is the concentration that inhibits the measured activity by half. Low readings indicate greater potency, high ones weaker potency. The CC50 is the concentration at which the toxic effect on the cells reaches its halfway point.

In “cells”, `CC(C)(C)NC(=O)[C@@H]1C[C@@H]2CCCC[C@@H]2CN1C[C@@H](O)[C@H](Cc1ccccc1)NC(=O)[C@H](CC(N)=O)NC(=O)c1ccc2ccccc2n1` had an IC50 of 10.5 µM. Take `CC(C)(C)NC(=O)[C@@H]1C[C@@H]2CCCC[C@@H]2CN1C[C@H](O)CNCCc1ccc(Cl)cc1`: in data set [1], the CC50 amounted to 4.04 µM. With `CN(C)CCOc1ccc(/C(=C(/CCCl)c2ccccc2)c2ccccc2)cc1` [TOREMIFENE], in the data set “cells”, the IC50 was 0.17 µM. For the same molecule, the CC50 in data set [1] was determined as 9.31 µM.
